Legend:
[1] = molecular target: T1, RmlA (glucose-1-phosphate thymidylyltransferase, gene 1774) (Pectobacterium actinidiae, UniProt A0ABW8GFN0, G107A/D108A/N109A/G144A/E159A/V170A/E196A); conditions: read-out: binding affinity; 50 mM Tris-HCl, 1 mM MgCl2, 0.05% Tween 20, pH 8.0; ligand as disodium salt
T1 construct: gene rfbA

[2] = molecular target: T2, RmlA (glucose-1-phosphate thymidylyltransferase, gene 1774) (Pectobacterium actinidiae, UniProt A0ABW8GFN0); assay: microscale thermophoresis, FITC-labelled RmlA; conditions: read-out: binding affinity; 50 mM Tris-HCl, 1 mM MgCl2, 0.05% Tween 20, pH 8.0; ligand as disodium salt
T2 construct: gene rfbA; intact rmlA cloned from GX1 genomic DNA into pET32a; fusion protein; E. coli ArcticExpress (DE3); FITC-labelled

Row | SMILES | Kd [1] [mM] | Kd [2] [mM]
1 | O=P(O)(O)O[C@H]1O[C@H](CO)[C@@H](O)[C@H](O)[C@H]1O [G-1-P] | 8.96 | 0.0733
2 | Cc1cn([C@H]2C[C@H](O)[C@@H](COP(=O)(O)OP(=O)(O)OP(=O)(O)O)O2)c(=O)[nH]c1=O [dTTP] | 2.71 | 0.199

From paper PMC12227328, “The Enzyme Glucose‐1‐Phosphate Thymidylyltransferase RmlA Plays a Crucial Role in the Pathogenesis of Pectobacterium actinidiae GX1” (Molecular Plant Pathology, 2025)
